Source: ChEMBL document CHEMBL1135847, “Structure-activity relationship of linear peptide Bu-His-DPhe-Arg-Trp-Gly-NH(2) at the human melanocortin-1 and -4 receptors: arginine substitution” (Bioorg Med Chem Lett, 2002)

Key:
[1] = target: T1, Melanocyte-stimulating hormone receptor (Homo sapiens, UniProt Q01726); assay: Agonist potency for human Melanocortin 1 receptor; type: functional
Target sequence in this assay (Q01726 whole entry): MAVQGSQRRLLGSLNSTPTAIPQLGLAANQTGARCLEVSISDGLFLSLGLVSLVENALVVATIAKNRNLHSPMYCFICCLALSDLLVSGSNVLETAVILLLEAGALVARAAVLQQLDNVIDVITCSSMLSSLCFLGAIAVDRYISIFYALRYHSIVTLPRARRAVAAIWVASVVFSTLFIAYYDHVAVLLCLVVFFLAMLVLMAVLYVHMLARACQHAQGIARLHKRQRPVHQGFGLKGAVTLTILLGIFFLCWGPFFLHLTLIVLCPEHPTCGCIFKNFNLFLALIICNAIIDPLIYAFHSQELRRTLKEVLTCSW

Melanocortin receptor 4 [2] = target: T2, Melanocortin receptor 4 (Homo sapiens, UniProt P32245); assay: Agonist potency towards human Melanocortin 4 receptor; type: functional
T2 sequence (P32245 whole entry): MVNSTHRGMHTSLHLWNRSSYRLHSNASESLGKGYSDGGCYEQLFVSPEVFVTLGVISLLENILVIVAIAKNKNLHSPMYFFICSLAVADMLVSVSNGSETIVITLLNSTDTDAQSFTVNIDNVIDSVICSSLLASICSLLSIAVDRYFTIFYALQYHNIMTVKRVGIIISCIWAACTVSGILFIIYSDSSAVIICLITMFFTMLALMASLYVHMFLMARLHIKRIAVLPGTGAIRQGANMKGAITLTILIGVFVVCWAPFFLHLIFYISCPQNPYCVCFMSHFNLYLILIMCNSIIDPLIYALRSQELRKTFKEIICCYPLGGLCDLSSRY

[3] = pKa value was evaluated; type: physicochemical
Melanocortin receptor 4 [4] = target: T2, Melanocortin receptor 4; assay: Agonist potency towards human Melanocortin 4 receptor at 50 uM; type: functional
[5] = target: T1, Melanocyte-stimulating hormone receptor; assay: Agonist potency towards human Melanocortin 1 receptor at 50 uM; type: functional
Target sequence in this assay (Q01726 whole entry, looked up): as the sequence (Q01726 whole entry) above

| SMILES | EC50 [1] [nM] | EC50 (Melanocortin receptor 4 [2]) [nM] | pKa [3] | Activity (Melanocortin receptor 4 [4]) [%] | Activity [5] [%] |
| --- | --- | --- | --- | --- | --- |
| CCCCN[C@@H](Cc1cnc[nH]1)C(=O)N[C@H](Cc1ccccc1)C(=O)N[C@@H](CCCCNCc1ccccc1)C(=O)N[C@@H](Cc1c[nH]c2ccccc12)C(=O)NCC(N)=O | 85 | 4800 | – | – | – |
| CCCCN[C@@H](Cc1cnc[nH]1)C(=O)N[C@H](Cc1ccccc1)C(=O)N[C@@H](CCCNC(=N)N)C(=O)N[C@@H](Cc1c[nH]c2ccccc12)C(=O)NCC(N)=O | 10 | 20 | – | – | – |
| CCCCN[C@@H](Cc1cnc[nH]1)C(=O)N[C@H](Cc1ccccc1)C(=O)N[C@@H](CCCNC(N)=NC#N)C(=O)N[C@@H](Cc1c[nH]c2ccccc12)C(=O)NCC(N)=O | 15 | 70 | ~0 | – | – |
| CCCCN[C@@H](Cc1cnc[nH]1)C(=O)N[C@H](Cc1ccccc1)C(=O)N[C@@H](CCCNC(N)=O)C(=O)N[C@@H](Cc1c[nH]c2ccccc12)C(=O)NCC(N)=O | 950 | 760 | – | – | – |
| CCCCN[C@@H](Cc1cnc[nH]1)C(=O)N[C@H](Cc1ccccc1)C(=O)N[C@@H](CCC(=O)NC(=N)N)C(=O)N[C@@H](Cc1c[nH]c2ccccc12)C(=O)NCC(N)=O | 1 | 10 | ~7 | – | – |
| CCCCN[C@@H](Cc1c[nH]cn1)C(=O)N[C@H](Cc1ccccc1)C(=O)N[C@@H](CCC/N=C(/N)N[N+](=O)[O-])C(=O)N[C@@H](Cc1c[nH]c2ccccc12)C(=O)NCC(N)=O | – | – | – | 85 | 40 |

The next lines start with results.

| EC50 [1] [nM] | EC50 (Melanocortin receptor 4 [2]) [nM] | pKa [3] | SMILES | Activity (Melanocortin receptor 4 [4]) [%] | Activity [5] [%] |
| --- | --- | --- | --- | --- | --- |
| 60 | 1670 | – | CCCCN[C@@H](Cc1c[nH]cn1)C(=O)N[C@H](Cc1ccccc1)C(=O)N[C@@H](CCCCN(C)C)C(=O)N[C@@H](Cc1c[nH]c2ccccc12)C(=O)NCC(N)=O | – | – |
| 350 | 3280 | – | CCCCN[C@@H](Cc1cnc[nH]1)C(=O)N[C@H](Cc1ccccc1)C(=O)N[C@@H](CCCN(C)C)C(=O)N[C@@H](Cc1c[nH]c2ccccc12)C(=O)NCC(N)=O | – | – |
| 1700 | 1420 | – | CCCCN[C@@H](Cc1c[nH]cn1)C(=O)N[C@H](Cc1ccccc1)C(=O)N[C@@H](Cc1c[nH]cn1)C(=O)N[C@@H](Cc1c[nH]c2ccccc12)C(=O)NCC(N)=O | – | – |
| 255 | – | – | CCCCN[C@@H](Cc1c[nH]cn1)C(=O)N[C@H](Cc1ccccc1)C(=O)N[C@@H](CCCCNC(C)C)C(=O)N[C@@H](Cc1c[nH]c2ccccc12)C(=O)NCC(N)=O | 25 | – |
| 900 | 2500 | – | CCCCN[C@@H](Cc1c[nH]cn1)C(=O)N[C@H](Cc1ccccc1)C(=O)N[C@@H](CCCN)C(=O)N[C@@H](Cc1c[nH]c2ccccc12)C(=O)NCC(N)=O | – | – |
